# Experimental data: US12485117B2, “Compositions and methods for activating signaling through the CB1 cannabinoid receptor for treating and preventing diseases and disorders characterized by abnormal cellular accumulation of sphingolipids such as sphingomyelin” (Wylder Nation Foundation, priority 2018, dated 2025)
# Test system: macrophages
# Assay: Acute toxicity: liver inflammation by F4/80 immunofluorescence (macrophage cell area)
# Assay type: in vivo, mouse
# Settings: ASMko mice
# Description: We divided wt and ASMko mice of 4.5 months of age in six experimental groups: ASMko control (n=3), ASMko low dose (n=3), ASMko intermediate dose (n=3), ASMko high dose (n=3), wt control (n=3), wt high dose (n=3). PF-04457845, provided as powder, was dissolved in 0.9% NaCl and administered to mice through oral gavage. Vehicle groups received same volume of 0.9% NaCl.
# Inflammation was analyzed in the liver by immunofluorescence against the macrophage marker F4/80. Under inflammatory conditions macrophages acquire an amoeboid shape indicative of maximal activation.
structure (smiles),measurement,setting,value
O=C(Nc1cccnn1)N1CCC(=Cc2cccc(Oc3ccc(C(F)(F)F)cn3)c2)CC1 [PF-04457845],liver macrophage amoeboid morphology / cell area,single dose 0.1 mg/kg,did not significantly alter macrophage amoeboid morphology
same,liver macrophage cell area,single dose 1 mg/kg,remarkably reduced macrophage cell area to levels similar to wt mice
same,liver macrophage cell area,single dose 5 mg/kg,remarkably reduced macrophage cell area to levels similar to wt mice
